Measurements reported in the CheMixHub ionic liquid set.

Test: xn = mol fraction of the nth substance listed
Conditions: 101 kPa, x2 = 0

CCCCCCCCCCCCOS(=O)(=O)[O-].[Na+] + Cc1ncc(C[n+]2csc(CCO)c2C)c(N)n1.Cl.[Cl-] + O
electrical conductivity [S/m]
Conditions | 288.15 K | 298.15 K | 308.15 K | 318.15 K
x1 = 7.35e-06 | 0.00102 | 0.00389 | 0.00521 | 0.0057
x1 = 1.463e-05 | 0.00278 | 0.00675 | 0.0087 | 0.00954
x1 = 2.184e-05 | 0.00515 | 0.00896 | 0.012 | 0.0133
x1 = 2.898e-05 | 0.00708 | 0.0117 | 0.0152 | 0.017
x1 = 3.604e-05 | 0.00931 | 0.0145 | 0.0186 | 0.0208
x1 = 4.303e-05 | 0.0116 | 0.0171 | 0.0219 | 0.0244
x1 = 4.997e-05 | 0.0139 | 0.0198 | 0.0251 | 0.0279
x1 = 5.683e-05 | 0.0162 | 0.0224 | 0.0283 | 0.0313
x1 = 6.362e-05 | 0.0186 | 0.0244 | 0.0315 | 0.0347
x1 = 7.036e-05 | 0.0202 | 0.027 | 0.0345 | 0.0381
x1 = 7.703e-05 | 0.0225 | 0.0296 | 0.0375 | 0.0414
x1 = 8.364e-05 | 0.0247 | 0.0321 | 0.0405 | 0.0448
x1 = 9.018e-05 | 0.0269 | 0.0347 | 0.0432 | 0.0481
x1 = 9.658e-05 | 0.0286 | 0.0371 | 0.0461 | 0.0513
x1 = 0.0001031 | 0.0307 | 0.0395 | 0.0491 | 0.0543
x1 = 0.0001094 | 0.0328 | 0.0419 | 0.0517 | 0.0573
x1 = 0.0001157 | 0.035 | 0.0442 | 0.0544 | 0.0602
x1 = 0.000122 | 0.037 | 0.0466 | 0.0568 | 0.0632
x1 = 0.0001281 | 0.039 | 0.0488 | 0.0602 | 0.0659
x1 = 0.0001342 | 0.0411 | 0.0509 | 0.0625 | 0.0687
x1 = 0.0001404 | 0.0425 | 0.0524 | 0.0647 | 0.0711
x1 = 0.0001465 | 0.0432 | 0.0543 | 0.0667 | 0.0734
x1 = 0.0001524 | 0.0444 | 0.0559 | 0.0685 | 0.0755
x1 = 0.0001584 | 0.0452 | 0.0571 | 0.0701 | 0.0774
x1 = 0.0001641 | 0.0462 | 0.0582 | 0.0716 | 0.079
x1 = 0.0001699 | 0.0469 | 0.0592 | 0.0729 | 0.0805
x1 = 0.0001757 | 0.0478 | 0.0601 | 0.0742 | 0.0819
x1 = 0.0001814 | 0.0487 | 0.0609 | 0.0753 | 0.0832
x1 = 0.000187 | 0.0495 | 0.0617 | 0.0764 | 0.0845
x1 = 0.0001928 | 0.0501 | 0.0626 | 0.0775 | 0.0857
x1 = 0.0001982 | 0.0507 | 0.0634 | 0.0785 | 0.0868
x1 = 0.0002038 | 0.0513 | 0.0641 | 0.0796 | 0.0879
x1 = 0.0002092 | 0.0517 | 0.0648 | 0.0805 | 0.089
x1 = 0.0002147 | 0.0521 | 0.0654 | 0.0815 | 0.0902
x1 = 0.00022 | 0.0527 | 0.066 | 0.0824 | 0.0912
x1 = 0.0002254 | 0.0532 | 0.0666 | 0.0834 | 0.0924
x1 = 0.0002306 | 0.0537 | 0.0673 | 0.0843 | 0.0936
x1 = 0.0002358 | 0.0542 | 0.068 | 0.0852 | 0.0946
x1 = 0.0002411 | 0.0548 | 0.0686 | 0.0861 | 0.0956
x1 = 0.0002463 | 0.0554 | 0.0693 | 0.087 | 0.0966
